Some results are limits rather than exact numbers.

The assay deals with T1, human CXCR3 (N-delta 4) (Homo sapiens, UniProt P49682).
T1 construct: CD8 leader (N); Flag tag (N); expressed in transfected cells; host or cells: mouse pro-B Ba/F3 cells, stably transfected with pME18Sneo-hCXCR3 (N-delta 4); membrane preparation
T1 sequence (P49682 5-368 limits assumed): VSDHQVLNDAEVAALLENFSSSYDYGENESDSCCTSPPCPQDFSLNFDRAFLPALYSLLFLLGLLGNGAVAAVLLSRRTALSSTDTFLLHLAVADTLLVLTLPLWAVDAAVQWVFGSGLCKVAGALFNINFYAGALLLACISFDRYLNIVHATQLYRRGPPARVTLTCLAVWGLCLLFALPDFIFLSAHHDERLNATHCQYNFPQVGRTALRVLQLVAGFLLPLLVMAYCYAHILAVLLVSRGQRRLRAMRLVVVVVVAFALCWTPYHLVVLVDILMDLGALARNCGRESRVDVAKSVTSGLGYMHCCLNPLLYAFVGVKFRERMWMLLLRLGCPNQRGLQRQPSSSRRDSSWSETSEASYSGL
Briefly: Human CXCR3 (N-delta 4) Scintillation Proximity Assay (SPA), [125I] IP-10 binding. Conditions: IC50 rating; Ba/F3-hCXCR3 (N-delta 4) membranes, 25 pM [125I] IP-10; read-out: IC50. The source says:
The inventive compounds can readily be evaluated to determine activity at The CXCR3 receptors by known methods, such as, for example, Development of Human CXCR3 (N-delta 4) Binding Assay.
Cloning and Expression of Human CXCR3 (N-delta 4):
The DNA encoding human CXCR3 was cloned by PCR using human genomic DNA (Promega, Madison, Wis.) as a template. The PCR primers were designed based on the published sequence of human orphan receptor GPR9 (1) with incorporated restriction sites, a Kozak consensus sequence, CD8 leader and Flag tag. The PCR product was subcloned into the mammalian expression vector pME18Sneo, a derivative of the SR-alpha expression vector (designated as pME18Sneo-hCXCR3 (N-delta 4).
IL-3-dependent mouse pro-B cells Ba/F3 were transfected by electroporation in 0.4 ml Dulbecco's PBS containing 4×10^6 cells with 20 μg of pME18Sneo-hCXCR3 (N-delta 4) plasmid DNA. Cells were pulsed at 400 Volts, 100 OHMs, 960 μFd. The transfected cells were under selection with 1 mg/ml G418 (Life Technologies, Gaithersburg, Md.). G418-resistant Ba/F3 clones were screened for CXCR3 expression by specific binding of [^125I] IP-10 (NEN Life Science Products, Boston, Mass.).
Preparation of Ba/F3-hCXCR3 (N-delta 4) Membranes:
Ba/F3 cells expressing human CXCR3 (N-delta 4) were pelleted and resuspended in the lysis buffer containing 10 mM HEPES, pH 7.5 and Complete® protease inhibitors (1 tablet per 100 ml) (Boehringer Mannheim, Indianapolis, Ind.) at a cell density of 20×10^6 cells per ml. After 5 minutes incubation on ice, cells were transferred to 4639 cell disruption bomb (Parr Instrument, Moline, Ill.) and applied with 1,500 psi of nitrogen for 30 minutes on ice. Large cellular debris was removed by centrifugation at 1,000×g. Cell membrane in the supernatant was sedimented at 100,000×g. The membrane was resuspended in the lysis buffer supplemented with 10% sucrose and stored at −80° C. Total protein concentration of the membrane was determined by BCA method from Pierce (Rockford, Ill.).
Human CXCR3 (N-delta 4) Scintillation Proximity Assay (SPA):
For each assay point, 2 μg of membrane was preincubated for 1 hr with 300 μg wheat germ agglutinin (WGA) coated SPA beads (Amersham, Arlington Heights, Ill.) in the binding buffer (50 mM HEPES, 1 mM CaCl2, 5 mM MgCl2, 125 mM NaCl, 0.002% NaN3, 1.0% BSA) at room temperature. The beads were spun down, washed once, resuspended in the binding buffer and transferred to a 96-well Isoplate (Wallac, Gaithersburg, Md.). 25 pM of [^125I] IP-10 with tested compounds in a series of titration were added to start the reaction. After 3 hr reaction at room temperature, the amount of [^125I] IP-10 bound to the SPA beads was determined with a Wallac 1450 Microbeta counter.
The Ki values for the various example compounds of the present invention are given in the afore-mentioned Table 1. From these values, it would be apparent to the skilled artisan that the compounds of the invention have excellent utility CXCR3 antagonists.
The IC50 is the concentration that inhibits the measured activity by half. `CCNc1nnc(-c2cnc(N3CCN(C4CCN(C(=O)c5ccc(Cl)nc5N)CC4)[C@@H](CC)C3)c(C)n2)o1` [Compound 16]: the IC50 was < 25 nM. `CC[C@H]1CN(c2ncc(-c3nnc[nH]3)nc2C(F)(F)F)CCN1C1CCN(C(=O)c2ccc(Cl)cc2)CC1` [Compound 154]: the concentration for half-maximal inhibition (IC50) is < 25 nM. Regarding `CC[C@H]1CN(c2ncc(-c3ncc[nH]3)nc2C)CCN1C1CCN(Cc2ccc(F)cc2)CC1` [Compound 104], the IC50 was < 25 nM. In the case of `CC[C@H]1CN(c2nc(N)c(-c3nnc(C(C)(C)O)o3)nc2Cl)CCN1C1CCN(Cc2ccc(Cl)cc2)CC1` [Compound 28] it was < 25 nM; in that of `CC[C@H]1CN(c2nc(N)c(-c3nnc(C(=O)NC4CC4)o3)nc2Cl)CCN1C1CCN(C(=O)c2ccc(Cl)nc2N)CC1` [Compound 73], 25 to 100 nM. As for `CCNc1nnc(-c2cnc(N3CCN(C4CCN([C@@H](CO)c5ccc(Cl)cc5)CC4)[C@@H](CC)C3)c(C)n2)o1` [Compound 162], the figure is < 25 nM. As to `CC[C@H]1CN(c2nc(N)c(-c3nnc(C)o3)nc2Cl)CCN1C1CCN(Cc2ccc(Cl)cc2C(N)=O)CC1` [Compound 8], the IC50 is < 25 nM. `CC[C@H]1CN(c2ncc(-c3nc[nH]n3)nc2C)[C@H](C)CN1C1CCN(C(=O)c2ccc(Cl)c(F)c2)CC1` [Compound 134]: the IC50 was < 25 nM.

On to `CCNc1nnc(-c2cnc(N3C[C@H](CC)N(C4CCN(C(=O)c5ccc(Cl)cc5)CC4)C[C@H]3C)c(C(F)(F)F)n2)o1` [Compound 191], for which the IC50 was < 25 nM. In the case of `CC[C@H]1CN(c2nc(N)c(-c3nnc(C)o3)nc2Cl)CCN1C1CCN(C(=O)c2ccc(Cl)nc2)CC1` [Compound 57] it was < 25 nM; in that of `CC[C@H]1CN(c2nc(N)c(-c3nnc(CO)o3)nc2Cl)CCN1C1CCN([C@H](CO)c2ccc(Cl)cc2)CC1` [Compound 69], < 25 nM; in that of `CCNc1nnc(-c2cnc(N3C[C@H](CC)N(C4CCN(C(CO)c5ccc(F)c(F)c5)CC4)C[C@H]3C)c(C)n2)o1` (some centres unmarked) [Compound 175], < 25 nM. Regarding `CCNc1nnc(-c2cnc(N3CCN(C4CCN(C(=O)c5cc(F)c(Cl)cc5F)CC4)[C@@H](CC)C3)c(Cl)n2)o1` [Compound 187], the IC50 is < 25 nM. `CC[C@H]1CN(c2ncc(-c3ncc[nH]3)nc2C)CCN1C1CCN(C(=O)c2ccc(Cl)cc2)CC1` [Compound 111]: the IC50 is < 25 nM.

In the case of `CC[C@H]1CN(c2ncc(-c3ncc[nH]3)nc2C)CCN1C1CCN(Cc2ccc(F)c(F)c2)CC1` [Compound 108], the half-inhibitory concentration (IC50) is < 25 nM. Regarding `CCNc1nnc(-c2cnc(N3CCN(C4CCN(Cc5ccc(C(F)(F)F)cc5)CC4)[C@@H](CC)C3)c(C)n2)o1` [Compound 166], the concentration for half-maximal inhibition (IC50) is < 25 nM.

As for `CC[C@H]1CN(c2ncc(-c3nnc(C(C)C)[nH]3)nc2C)CCN1C1CCN(C(=O)c2ccc(Cl)cc2)CC1` [Compound 141], the half-inhibitory concentration (IC50) is 25 to 100 nM. As for `CC[C@H]1CN(c2nc(N)c(-c3nnc(NCC(N)=O)o3)nc2Cl)CCN1C1CCN(C(=O)c2ccc(Cl)nc2N)CC1` [Compound 75], the figure is 25 to 100 nM; as for `CCNc1nnc(-c2cnc(N3C[C@H](CC)N(C4CCN(C(=O)c5ccc(Cl)nc5N)CC4)C[C@H]3C)c(C)n2)o1` [Compound 97], < 25 nM; as for `CC[C@H]1CN(c2ncc(-c3ncc[nH]3)nc2C)CCN1C1CCN(C(=O)c2ccc(Cl)nc2N)CC1` [Compound 119], < 25 nM. As for `CC[C@H]1CN(c2nc(N)c(-c3nnc(N)o3)nc2Cl)CCN1C1CCN(Cc2ccc(C#N)cc2)CC1` [Compound 9], the figure is < 25 nM. For the compound `CCNc1nnc(-c2cnc(N3CCN(C4CCN(C(=O)c5ccc(Cl)c(C)c5)CC4)[C@@H](CC)C3)c(C)n2)o1` [Compound 155], the half-inhibitory concentration (IC50) was < 25 nM.

For `CC[C@H]1CN(c2ncc(-c3ncc[nH]3)nc2C)CCN1C1CCN(Cc2ccc(Cl)cc2)CC1` [Compound 107], the IC50 is < 25 nM.

As for `CCNc1nnc(-c2cnc(N3C[C@H](CC)N(C4CCN(C(=O)c5ccc(Cl)cc5)CC4)C[C@H]3C)c(C)n2)o1` [Compound 96], the IC50 was < 25 nM.

For `CC[C@H]1CN(c2ncc(-c3nnc(C)[nH]3)nc2Cl)CCN1C1CCN(C(=O)c2ccc(Cl)cc2)CC1` [Compound 51], the IC50 was < 25 nM.

In the case of `CC[C@H]1CN(c2nc(N)c(-c3nnc(N)o3)nc2Cl)CCN1C1CCN(C(=O)c2ccc(OC(F)(F)F)cc2)CC1` [Compound 76], the IC50 lay in the range of 25 to 100 nM. In the case of `CC[C@H]1CN(c2ncc(-c3nc[nH]n3)nc2C)CCN1C1CCN(C(=O)c2ccc(Cl)nc2N)CC1` [Compound 38] it was < 25 nM. In the case of `CC[C@H]1CN(c2ncc(-c3nnc[nH]3)nc2C)CCN1C1CCN(Cc2ccc(F)c(F)c2)CC1` [Compound 109] it was < 25 nM.

`CC[C@H]1CN(c2ncc(-c3nnc(N)o3)nc2C)[C@H](C)CN1C1CCN(Cc2ccc(Cl)cc2)CC1` [Compound 123]: the half-maximal inhibitory concentration (IC50) is < 25 nM. As for `CCCNc1nnc(-c2nc(Cl)c(N3CCN(C4CCN(C(=O)c5ccc(Cl)nc5N)CC4)[C@@H](CC)C3)nc2N)o1` [Compound 12], the figure is < 25 nM.

For `CC[C@H]1CN(c2ncc(-c3nnc(C)o3)nc2C)CCN1C1CCN(C(=O)c2ccc(Cl)nc2N)CC1` [Compound 35], the half-inhibitory concentration (IC50) is < 25 nM. Consider `CCO/C=N\c1nc(N2CCN(C3CCN(Cc4ccc(Cl)cc4)CC3)[C@@H](CC)C2)c(Cl)nc1-c1nnco1` [Compound 60], for which the 50% inhibitory concentration (IC50) is < 25 nM. In the case of `CC[C@H]1CN(c2ncc(-c3nnc[nH]3)nc2C)CCN1C1CCN(Cc2ccc(F)cc2)CC1` [Compound 105] it was < 25 nM; in that of `CC[C@H]1CN(c2nc(N)c(-c3nnc(N)o3)nc2Cl)CCN1C1CCN(Cc2ccc(Cl)cc2F)CC1` [Compound 3], < 25 nM. As for `CCNc1nnc(-c2cnc(N3C[C@H](CC)N(C4CCN(C(=O)c5ccc(F)c(F)c5)CC4)C[C@H]3C)c(C)n2)o1` [Compound 160], the figure is < 25 nM; as for `CC[C@H]1CN(c2ncc(-c3nnc(C)[nH]3)nc2C)CCN1C1CCN(C(=O)c2ccc(Cl)cc2)CC1` [Compound 53], < 25 nM.

Turning to `CCNc1nnc(-c2nc(Cl)c(N3CCN(C4CCN(C(=O)c5ccc(Cl)cc5)CC4)[C@@H](CC)C3)nc2N)o1` [Compound 20], the IC50 was < 25 nM. In the case of `CC[C@H]1CN(c2nc(N)c(-c3nnc(C(F)(F)F)o3)nc2Cl)CCN1C1CCN(Cc2ccc(Cl)cc2)CC1` [Compound 59] it was < 25 nM.

Consider `CCNc1nnc(-c2cnc(N3CCN(C4CCN(Cc5ccc(C)cc5)CC4)[C@@H](CC)C3)c(C)n2)o1` [Compound 115], for which the IC50 is < 25 nM. For `CC[C@H]1CN(c2nc(N)c(-c3nnc(C(=O)NC4CC4)o3)nc2Cl)CCN1C1CCN(C(=O)c2ccc(Cl)cc2)CC1` [Compound 88], the concentration for half-maximal inhibition (IC50) was > 100 nM. `CC[C@H]1CN(c2nc(N)c(-c3nnc(NCCO)o3)nc2Cl)CCN1C1CCN(C(=O)c2ccc(Cl)nc2N)CC1` [Compound 41]: the 50% inhibitory concentration (IC50) was < 25 nM. Turning to `CC[C@H]1CN(c2ncc(-c3nnc(N)[nH]3)nc2C)CCN1C1CCN(C(=O)c2ccc(Cl)cc2)CC1` [Compound 120], the 50% inhibitory concentration (IC50) was < 25 nM. Regarding `CC[C@H]1CN(c2nc(N)c(-c3nnc(C)o3)nc2Cl)CCN1C1CCN([C@@H](CO)c2ccc(Cl)cc2)CC1` [Compound 5], the half-inhibitory concentration (IC50) was < 25 nM.

For the compound `CCNc1nnc(-c2cnc(N3CCN(C4CCN(C(=O)c5ccc(Cl)cc5F)CC4)[C@@H](CC)C3)c(C)n2)o1` [Compound 165], the half-inhibitory concentration (IC50) was < 25 nM.
